Experimental data: patent US5883243A, “Non-reducing saccharides, their preparations and uses” (Kabushiki Kaisha Hayashibara Seibutsu Kagaku Kenkyujo, priority 1997, dated 1999)

Tests used:
[1] = test system: Bacteroides distasonis JCM 5825; experiment: Assimilation test by intestinal microorganism; assay type: cell-based; conditions: 0.5 w/v % saccharide in PYF broth, 37° C., 96 hours
[2] = test system: Streptococcus sobrinus ATCC 27351; experiment: Acid formation by dental caries-inducing microorganisms; conditions: living wet cells, 0.02M saccharide, Stephen buffer pH 7.0, 37° C.
[3] = test system: Eubacterium aerofaciens ATCC 25986; experiment: Assimilation test by intestinal microorganism; assay type: cell-based; conditions: 0.5 w/v % saccharide in PYF broth, 37° C., 96 hours
[4] = test system: Bifidobacterium animalis JCM 1190; experiment: Assimilation test by intestinal microorganism; assay type: cell-based; conditions: 0.5 w/v % saccharide in PYF broth, 37° C., 96 hours
[5] = test system: Clostridium ramosum JCM 1298; experiment: Assimilation test by intestinal microorganism; assay type: cell-based; conditions: 0.5 w/v % saccharide in PYF broth, 37° C., 96 hours
[6] = test system: Bacteroides vulgatus JCM 5826; experiment: Assimilation test by intestinal microorganism; assay type: cell-based; conditions: 0.5 w/v % saccharide in PYF broth, 37° C., 96 hours
[7] = test system: Streptococcus faecalis IAM 10065; experiment: Assimilation test by intestinal microorganism; assay type: cell-based; conditions: 0.5 w/v % saccharide in PYF broth, 37° C., 96 hours
[8] = test system: Bifidobacterium infantis JCM 1222; experiment: Assimilation test by intestinal microorganism; assay type: cell-based; conditions: 0.5 w/v % saccharide in PYF broth, 37° C., 96 hours
[9] = test system: Bifidobacterium breve JCM 1192; experiment: Assimilation test by intestinal microorganism; assay type: cell-based; conditions: 0.5 w/v % saccharide in PYF broth, 37° C., 96 hours
[10] = test system: Clostridium perfringens JCM 3816; assay type: cell-based; conditions: 0.5 w/v % saccharide in PYF broth, 37° C., 96 hours
[11] = test system: Lactobacillus plantarum IFO 3070; experiment: Assimilation test by intestinal microorganism; assay type: cell-based; conditions: 0.5 w/v % saccharide in PYF broth, 37° C., 96 hours
[12] = test system: Lactobacillus fermentum IFO 3959; experiment: Assimilation test by intestinal microorganism; assay type: cell-based; conditions: 0.5 w/v % saccharide in PYF broth, 37° C., 96 hours
[13] = test system: Bifidobacterium longum JCM 1217; experiment: Assimilation test by intestinal microorganism; assay type: cell-based; conditions: 0.5 w/v % saccharide in PYF broth, 37° C., 96 hours
[14] = test system: Escherichia coli IFO 3301; experiment: Assimilation test by intestinal microorganism; assay type: cell-based; conditions: 0.5 w/v % saccharide in PYF broth, 37° C., 96 hours
[15] = test system: Peptostreptococcus prevotii ATCC 9321; experiment: Assimilation test by intestinal microorganism; assay type: cell-based; conditions: 0.5 w/v % saccharide in PYF broth, 37° C., 96 hours
[16] = test system: Bacteroides uniformis JCM 5828; experiment: Assimilation test by intestinal microorganism; assay type: cell-based; conditions: 0.5 w/v % saccharide in PYF broth, 37° C., 96 hours
[17] = test system: Bifidobacterium bifidum JCM 1255; experiment: Assimilation test by intestinal microorganism; assay type: cell-based; conditions: 0.5 w/v % saccharide in PYF broth, 37° C., 96 hours
[18] = test system: Bifidobacterium adolescentis JCM 1275; experiment: Assimilation test by intestinal microorganism; assay type: cell-based; conditions: 0.5 w/v % saccharide in PYF broth, 37° C., 96 hours
[19] = test system: Clostridium sporogenes JCM 1416; experiment: Assimilation test by intestinal microorganism; assay type: cell-based; conditions: 0.5 w/v % saccharide in PYF broth, 37° C., 96 hours, free of sugar: ±
Description: To evaluate the growth rate of and to judge the assimilability by the microorganisms, the resultant broth was diluted 5-fold, and the turbidity of the dilution was measured at a wavelength of 750 nm in a 1-cm light-path cell. […] The criteria were in Table 3, and the results were in Tables 4 and 5: […]

[20] = test system: Clostridium butyricum JCM 1391; assay type: cell-based; conditions: 0.5 w/v % saccharide in PYF broth, 37° C., 96 hours

## OC[C@H]1O[C@H](OC[C@H]2OC(O)[C@H](O)[C@@H](O)[C@@H]2O)[C@H](O)[C@@H](O)[C@@H]1O (stereo partly shown) [Isomaltose, isomaltose, reference compound]
[1]
  Judgement of assimilation (turbidity at a wavelength of 750 nm × 5): + (0.15 or higher but less than 0.2)
[2]; 0 min
  pH at each fermentation time (min): 0: 7.0
[2]; 5 min
  pH at each fermentation time (min): 5: 7.0
[2]; 15 min
  pH at each fermentation time (min): 15: 6.9
[2]; 30 min
  pH at each fermentation time (min): 30: 6.9
[2]; 60 min
  pH at each fermentation time (min): 60: 6.8
[2]; 90 min
  pH at each fermentation time (min): 90: 6.7
[3]
  Judgement of assimilation (turbidity at a wavelength of 750 nm × 5): + (0.15 or higher but less than 0.2)
[4]
  Judgement of assimilation (turbidity at a wavelength of 750 nm × 5): +++ (0.3 or higher)
[5]
  Judgement of assimilation (turbidity at a wavelength of 750 nm × 5): - (Less than 0.1)
[6]
  Judgement of assimilation (turbidity at a wavelength of 750 nm × 5): - (Less than 0.1)
[7]
  Judgement of assimilation (turbidity at a wavelength of 750 nm × 5): + (0.15 or higher but less than 0.2)
[8]
  Judgement of assimilation (turbidity at a wavelength of 750 nm × 5): +++ (0.3 or higher)
[9]
  Judgement of assimilation (turbidity at a wavelength of 750 nm × 5): +++ (0.3 or higher)
[10]
  Judgement of assimilation (turbidity at a wavelength of 750 nm × 5): ± (0.1 or higher but less than 0.15)
[11]
  Judgement of assimilation (turbidity at a wavelength of 750 nm × 5): - (Less than 0.1)
[12]
  Judgement of assimilation (turbidity at a wavelength of 750 nm × 5): - (Less than 0.1)
[13]
  Judgement of assimilation (turbidity at a wavelength of 750 nm × 5): ++ (0.2 or higher but less than 0.3)
[14]
  Judgement of assimilation (turbidity at a wavelength of 750 nm × 5): - (Less than 0.1)
[15]
  Judgement of assimilation (turbidity at a wavelength of 750 nm × 5): - (Less than 0.1)
[16]
  Judgement of assimilation (turbidity at a wavelength of 750 nm × 5): - (Less than 0.1)
[17]
  Judgement of assimilation (turbidity at a wavelength of 750 nm × 5): + (0.15 or higher but less than 0.2)
[18]
  Judgement of assimilation (turbidity at a wavelength of 750 nm × 5): +++ (0.3 or higher)
[19]
  Judgement of assimilation (turbidity at a wavelength of 750 nm × 5): ± (0.1 or higher but less than 0.15)

## O=C[C@H](O)[C@@H](O)[C@H](O)[C@H](O)CO [A, glucose, reference compound]
[1]
  Judgement of assimilation (turbidity at a wavelength of 750 nm × 5): ++ (0.2 or higher but less than 0.3)
[3]
  Judgement of assimilation (turbidity at a wavelength of 750 nm × 5): +++ (0.3 or higher)
[4]
  Judgement of assimilation (turbidity at a wavelength of 750 nm × 5): +++ (0.3 or higher)
[5]
  Judgement of assimilation (turbidity at a wavelength of 750 nm × 5): + (0.15 or higher but less than 0.2)
[6]
  Judgement of assimilation (turbidity at a wavelength of 750 nm × 5): + (0.15 or higher but less than 0.2)
[7]
  Judgement of assimilation (turbidity at a wavelength of 750 nm × 5): ++ (0.2 or higher but less than 0.3)
[8]
  Judgement of assimilation (turbidity at a wavelength of 750 nm × 5): ++ (0.2 or higher but less than 0.3)
[9]
  Judgement of assimilation (turbidity at a wavelength of 750 nm × 5): ++ (0.2 or higher but less than 0.3)
[10]
  Judgement of assimilation (turbidity at a wavelength of 750 nm × 5): +++ (0.3 or higher)
[11]
  Judgement of assimilation (turbidity at a wavelength of 750 nm × 5): ++ (0.2 or higher but less than 0.3)
[12]
  Judgement of assimilation (turbidity at a wavelength of 750 nm × 5): ++ (0.2 or higher but less than 0.3)
[13]
  Judgement of assimilation (turbidity at a wavelength of 750 nm × 5): +++ (0.3 or higher)
[14]
  Judgement of assimilation (turbidity at a wavelength of 750 nm × 5): + (0.15 or higher but less than 0.2)
[15]
  Judgement of assimilation (turbidity at a wavelength of 750 nm × 5): + (0.15 or higher but less than 0.2)
[16]
  Judgement of assimilation (turbidity at a wavelength of 750 nm × 5): ++ (0.2 or higher but less than 0.3)
[17]
  Judgement of assimilation (turbidity at a wavelength of 750 nm × 5): ++ (0.2 or higher but less than 0.3)
[18]
  Judgement of assimilation (turbidity at a wavelength of 750 nm × 5): +++ (0.3 or higher)
[19]
  Judgement of assimilation (turbidity at a wavelength of 750 nm × 5): + (0.15 or higher but less than 0.2)
[20]
  Judgement of assimilation (turbidity at a wavelength of 750 nm × 5): +++ (0.3 or higher)
